Tests used:
Assay type in all cases: cell-based
[1] = system: Prostate Cancer
[2] = system: U251
[3] = system: SW-620
[4] = system: Leukemia
[5] = system: K-562

Compound: COc1cc(NC2=NC(=O)C(=Cc3c[nH]c4ccccc34)S2)cc(OC)c1OC [Les-6418, 5-((1H-Indol-3-yl)methylene)-2-((3,4,5-trimethoxyphenyl)amino)thiazol-4(5H)-one]
- GI50 ([1]; Homo sapiens, Prostate Cancer subpanel mean, read-out: MG_MID GI50): 3.61 µM
- CC50 ([1]; Homo sapiens, Prostate Cancer subpanel mean, read-out: MG_MID LC50): 70.8 µM
- MG_MID TGI ([1]; Prostate Cancer subpanel mean): 19.9 µM
- SI (MG_MID TGI) ([1]; Prostate Cancer subpanel, MG_MID_60/value): 0.93
- GI50 ([2]; Homo sapiens, U-251, U251, 48 h): 3.27 µM
- CC50 ([2]; Homo sapiens, U-251, U251, 48 h, read-out: LC50 (the source's name)): 54.7 µM
- TGI ([2]; U251, 48 h): 15.7 µM
- SI (TGI) ([2]; U251, MG_MID_60/value): 1.18
- Growth % ([2]; U-251, 10 μM, one dose, 48 h): −79.79%
- GI50 ([3]; Homo sapiens, SW-620, 48 h): 3.1 µM
- CC50 ([3]; Homo sapiens, SW-620, 48 h, read-out: LC50 (the source's name)): 85 µM
- TGI ([3]; SW-620, 48 h): 21.8 µM
- SI (TGI) ([3]; SW-620, MG_MID_60/value): 0.85
- GI50 ([4]; Homo sapiens, Leukemia subpanel mean, read-out: MG_MID GI50): 2.04 µM
- CC50 ([4]; Homo sapiens, Leukemia subpanel mean, read-out: MG_MID LC50): > 100 µM
- MG_MID TGI ([4]; Leukemia subpanel mean): 49.7 µM
- SI (MG_MID TGI) ([4]; Leukemia subpanel, MG_MID_60/value): 0.37
- GI50 ([5]; Homo sapiens, K562, K-562, 48 h): 0.526 µM
- CC50 ([5]; Homo sapiens, K562, K-562, 48 h, read-out: LC50 (the source's name)): > 100 µM
- TGI ([5]; K-562, 48 h): 31.1 µM
- SI (TGI) ([5]; K-562, MG_MID_60/value): 0.60
